Assay results from PubChem BioAssay AID256 (DTP/NCI, 2004).
Where “and” joins values, the source holds several entries; their conditions need not be identical. Equal entries are not always repeated. Toxic doses and inconclusive results are not listed. The calls were made as follows: active = survival T/C of 150% or more; inactive = T/C below 125% in these data.

Tested on: CD2F1 mice, L1210 leukemia ip, survival T/C
Test: NCI In Vivo Anticancer Drug Screen. Data for tumor model L1210 Leukemia (intraperitoneal) in CD2F1 (CDF1) mice
Conditions: higher = longer survival
Procedure, shortened: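 Antitumor effect is scored in animals hosting a serially transplanted tumor. Values compare compound-dosed animals against vehicle-only controls as a simple quotient.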

[1] = endpoint: mean survival time, dose: 100.0 mg/kg/injection, schedule: Q04DX003 (ip), vehicle: saline with Tween-80
[2] = endpoint: mean survival time, dose: 200.0 mg/kg/injection, schedule: Q04DX003 (ip), vehicle: saline with Tween-80
[3] = endpoint: mean survival time, dose: 400.0 mg/kg/injection, schedule: Q04DX003 (ip), vehicle: saline with Tween-80
[4] = endpoint: mean survival time, dose: 25.0 mg/kg/injection, schedule: Q01DX009 (ip), vehicle: saline with Tween-80
[5] = endpoint: mean survival time, dose: 50.0 mg/kg/injection, schedule: Q01DX009 (ip), vehicle: saline with Tween-80
[6] = endpoint: mean survival time, dose: 100.0 mg/kg/injection, schedule: Q01DX009 (ip), vehicle: saline with Tween-80
[7] = endpoint: mean survival time, dose: 200.0 mg/kg/injection, schedule: Q01DX009 (ip), vehicle: saline with Tween-80
[8] = endpoint: mean survival time, dose: 400.0 mg/kg/injection, schedule: Q01DX009 (ip), vehicle: saline with Tween-80
[9] = endpoint: mean survival time, dose: 12.5 mg/kg/injection, schedule: Q01DX009 (ip), vehicle: saline with Tween-80
[10] = endpoint: mean survival time, dose: 50.0 mg/kg/injection, schedule: Q01DX009 (ip), vehicle: saline
[11] = endpoint: mean survival time, dose: 100.0 mg/kg/injection, schedule: Q01DX009 (ip), vehicle: saline
[12] = endpoint: mean survival time, dose: 100.0 mg/kg/injection, schedule: Q04DX003 (ip), vehicle: saline
[13] = endpoint: mean survival time, dose: 200.0 mg/kg/injection, schedule: Q04DX003 (ip), vehicle: saline
[14] = endpoint: mean survival time, dose: 400.0 mg/kg/injection, schedule: Q04DX003 (ip), vehicle: saline

Measured: T/C

CC(=O)OC1CCC2(C)C3CCC4(C)C(O)CCC4C3CC(O)C2(O)C1 (stereo not given)
inactive: [1] 90 % of control | [2] 87 % of control | [3] 91 % of control

Clc1ccc(COCc2ccccc2Cn2ccnc2)cc1
inactive: [4] 98 % of control | [5] 104 % of control | [6] 96 % of control and 105 % of control

CCCCNc1nc2c(N)ncnc2n1C1OC(CO)C(O)C1O (stereo not given)
inactive: endpoint: mean survival time, dose: 12.5 mg/kg/injection, schedule: Q01DX005 (ip), vehicle: distilled water + Tween-80 100 % of control and 97 % of control | endpoint: mean survival time, dose: 25.0 mg/kg/injection, schedule: Q01DX005 (ip), vehicle: distilled water + Tween-80 102 % of control and 100 % of control | endpoint: mean survival time, dose: 50.0 mg/kg/injection, schedule: Q01DX005 (ip), vehicle: distilled water + Tween-80 100 % of control | endpoint: mean survival time, dose: 100.0 mg/kg/injection, schedule: Q01DX005 (ip), vehicle: distilled water + Tween-80 100 % of control and 102 % of control | endpoint: mean survival time, dose: 200.0 mg/kg/injection, schedule: Q01DX005 (ip), vehicle: distilled water + Tween-80 100 % of control and 103 % of control

C=Cc1cc(OC)c2c(c1)c(=O)oc1c2cc(OC)c2c(O)ccc(C3OC(C(C)O)C(O)C3O)c21 (stereo not given)
inactive: endpoint: median survival time, dose: 25.0 mg/kg/injection, schedule: Q01DX009 (ip), vehicle: Klucel (hydroxypropylcellulose) (HPC) 112 % of control | endpoint: median survival time, dose: 36.0 mg/kg/injection, schedule: Q01DX009 (ip), vehicle: Klucel (hydroxypropylcellulose) (HPC) 118 % of control | endpoint: median survival time, dose: 50.0 mg/kg/injection, schedule: Q01DX009 (ip), vehicle: Klucel (hydroxypropylcellulose) (HPC) 112 % of control | endpoint: median survival time, dose: 60.0 mg/kg/injection, schedule: Q01DX009 (ip), vehicle: Klucel (hydroxypropylcellulose) (HPC) 109 % of control | endpoint: median survival time, dose: 100.0 mg/kg/injection, schedule: Q01DX009 (ip), vehicle: Klucel (hydroxypropylcellulose) (HPC) 113 % of control and 100 % of control | endpoint: median survival time, dose: 166.7 mg/kg/injection, schedule: Q01DX009 (ip), vehicle: Klucel (hydroxypropylcellulose) (HPC) 116 % of control | endpoint: median survival time, dose: 277.8 mg/kg/injection, schedule: Q01DX009 (ip), vehicle: Klucel (hydroxypropylcellulose) (HPC) 120 % of control | endpoint: median survival time, dose: 400.0 mg/kg/injection, schedule: Q01DX009 (ip), vehicle: Klucel (hydroxypropylcellulose) (HPC) 111 % of control

CSCC1CCCCC12OCCO2 (stereo not given)
inactive: endpoint: mean survival time, dose: 100.0 mg/kg/injection, schedule: Q01DX001 (ip), vehicle: saline with Tween-80 104 % of control | endpoint: mean survival time, dose: 200.0 mg/kg/injection, schedule: Q01DX001 (ip), vehicle: saline with Tween-80 96 % of control | endpoint: mean survival time, dose: 400.0 mg/kg/injection, schedule: Q01DX001 (ip), vehicle: saline with Tween-80 96 % of control

Cc1cc2c(=O)c(C)c[nH]c2cc1Cl
inactive: endpoint: mean survival time, dose: 50.0 mg/kg/injection, schedule: Q01DX009 (ip), vehicle: Klucel (hydroxypropylcellulose) (HPC) 89 % of control | endpoint: mean survival time, dose: 100.0 mg/kg/injection, schedule: Q01DX009 (ip), vehicle: Klucel (hydroxypropylcellulose) (HPC) 86 % of control

CC1CC2CCC1C2O (stereo not given)
inactive: endpoint: mean survival time, dose: 75.0 mg/kg/injection, schedule: Q01DX001 (ip), vehicle: saline 98 % of control | endpoint: mean survival time, dose: 150.0 mg/kg/injection, schedule: Q01DX001 (ip), vehicle: saline 91 % of control | endpoint: mean survival time, dose: 300.0 mg/kg/injection, schedule: Q01DX001 (ip), vehicle: saline 87 % of control

COc1ccccc1NC(=S)NCCO
inactive: [6] 97 % of control | [7] 103 % of control | [8] 98 % of control

C/C(=N/NC(N)=S)c1ccc2ccccc2c1
inactive: endpoint: mean survival time, dose: 6.25 mg/kg/injection, schedule: Q01DX009 (ip), vehicle: saline with Tween-80 103 % of control | [9] 115 % of control | [4] 122 % of control | [5] 89 % of control

CC(NC(=O)NCCCl)c1ccccc1 (stereo not given)
inactive: endpoint: mean survival time, dose: 25.0 mg/kg/injection, schedule: Q01DX009 (ip), vehicle: saline 88 % of control | [10] 86 % of control

CCOC(=O)c1c(C)c2c(n1C)CC/C(=C\N1CCCCC1)C2=O
inactive: endpoint: mean survival time, dose: 100.0 mg/kg/injection, schedule: Q04DX002 (ip), vehicle: saline with Tween-80 111 % of control | endpoint: mean survival time, dose: 200.0 mg/kg/injection, schedule: Q04DX002 (ip), vehicle: saline with Tween-80 118 % of control | endpoint: mean survival time, dose: 400.0 mg/kg/injection, schedule: Q04DX002 (ip), vehicle: saline with Tween-80 96 % of control

CN(C)CCCNCCCCNCCCN(C)C
inactive: [11] 102 % of control | [12] 96 % of control | endpoint: mean survival time, dose: 200.0 mg/kg/injection, schedule: Q01DX009 (ip), vehicle: saline 102 % of control | [13] 101 % of control | [14] 106 % of control

NCCc1cc(O)c(O)cc1O
inactive: [10] 93 % of control | [11] 104 % of control

Cc1ccc(S(=O)(=O)Nc2ccccc2SSc2ccccc2NS(=O)(=O)c2ccc(C)cc2)cc1
inactive: endpoint: mean survival time, dose: 100.0 mg/kg/injection, schedule: Q01DX001 (ip), vehicle: Klucel (hydroxypropylcellulose) (HPC) 96 % of control | endpoint: mean survival time, dose: 200.0 mg/kg/injection, schedule: Q01DX001 (ip), vehicle: Klucel (hydroxypropylcellulose) (HPC) 96 % of control | endpoint: mean survival time, dose: 400.0 mg/kg/injection, schedule: Q01DX001 (ip), vehicle: Klucel (hydroxypropylcellulose) (HPC) 90 % of control

CCNC(=S)N1c2c(nc(N)[nH]c2=O)NCC1CNc1ccc(C(=O)NC(CCC(=O)O)C(=O)O)cc1 (stereo not given)
inactive: endpoint: mean survival time, dose: 100.0 mg/kg/injection, schedule: Q01DX001 (ip), vehicle: alkali diluted with saline 98 % of control | endpoint: mean survival time, dose: 200.0 mg/kg/injection, schedule: Q01DX001 (ip), vehicle: alkali diluted with saline 101 % of control | endpoint: mean survival time, dose: 400.0 mg/kg/injection, schedule: Q01DX001 (ip), vehicle: alkali diluted with saline 103 % of control

Cc1cccc(CNc2ccc(S(=O)(=O)c3ccc(NCc4cccc(C)n4)cc3)cc2)n1
inactive: [12] 97 % of control | [13] 112 % of control | [14] 93 % of control

CC(=O)Nc1ccc(/C=N/NC(=O)CNC(=O)Nc2cccc([N+](=O)[O-])c2)cc1
inactive: [9] 87 % of control | [4] 91 % of control | [5] 91 % of control | [6] 88 % of control

CCOC(=O)c1[nH]c(=S)n(Cc2ccccc2)c1C(=O)OCC
inactive: endpoint: mean survival time, dose: 50.0 mg/kg/injection, schedule: Q04DX003 (ip), vehicle: saline with Tween-80 103 % of control | [1] 108 % of control | [2] 97 % of control

CC1(CCOCc2ccccc2)NC(=O)NC1=O (stereo not given)
inactive: [6] 95 % of control | [1] 97 % of control | [7] 95 % of control | [2] 98 % of control | [8] 98 % of control | [3] 98 % of control

C=C(Br)COCC
inactive: [1] 89 % of control

O=C(O)C1C2C=CC(C2)C1C(=O)O (stereo not given)
inactive: [1] 97 % of control | [2] 92 % of control | [3] 98 % of control

O=C(Cc1ccccn1)c1ccccc1
inactive: endpoint: mean survival time, dose: 100.0 mg/kg/injection, schedule: Q01DX009 (ip), vehicle: other 101 % of control | endpoint: mean survival time, dose: 200.0 mg/kg/injection, schedule: Q01DX009 (ip), vehicle: other 96 % of control | endpoint: mean survival time, dose: 400.0 mg/kg/injection, schedule: Q01DX009 (ip), vehicle: other 96 % of control

CCCc1cc(OC)ccc1O
inactive: [6] 96 % of control | [1] 96 % of control | [7] 100 % of control | [2] 94 % of control | [8] 100 % of control | [3] 103 % of control

Cc1ccc2c(c1)=N/C(=N\c1nc(O)c(O)[nH]1)N=2
inactive: [6] 104 % of control | [7] 92 % of control | [8] 104 % of control

COc1cc(NC(=O)CC(C)=O)cc(OC)c1OC
inactive: [6] 100 % of control | [1] 102 % of control | [7] 100 % of control | [2] 96 % of control | [8] 101 % of control | [3] 96 % of control
